Columns and labels:
PCSK7 mRNA = PCSK7 mRNA qPCR after miRNA overexpression in HEK293T cells; format: cell-based, human; details: 48 hours after transfection
Protocol: RNA was isolated from the cells with the TRIzol™ Reagent (Invitrogen, USA) according to the manufacturer's instructions. The RNA samples were treated with RNase-free DNase I (Fermentas, USA) to eliminate any possible DNA contamination. Reverse transcription was performed using the PrimeScript™ First Strand cDNA Synthesis Kit (Takara, Japan) following the manufacturer's protocol. Briefly, one unit of the DNase I enzyme, 1 μL of a buffer, and 1 μg of total RNA were incubated for 30 minutes at 37° C. Then, 1 μL of 50 mM EDTA was added for enzyme inactivation and incubated at 65° C. for 10 minutes. Subsequently, 5 μL of DNase-treated RNA was added to the mix of 0.5 μL of the reverse-transcriptase enzyme, 2 μL of the reverse-transcriptase buffer, and 1 μL of a random hexamer and incubated for 15 minutes at 37° C., followed by 5 seconds at 85° C. for enzyme inactivation. Stem-loop RT-qPCR method was applied for evaluating the expression of miRNAs (Kramer, 2011). […]
All the reactions were repeated in duplicates. Next, melt curves were analyzed, with the mean threshold cycles used for further analyses. The relative expressions of the miRNAs and PCSK7 to RNU48 small nuclear RNA and/or GAPDH and β2m were calculated, respectively, via the 2-ΔΔCt method. […]

[1] = test system: 3′-UTR of human PCSK7 mRNAs; assay: Dual-luciferase reporter assay, wild-type PCSK7 3′-UTR, HEK293T cells; format: cell-based; details: wild-type PCSK7 3′-UTR psiCHECK-2, HEK293T
Excerpt: The interactions between the miRNAs and their probable targets on PCSK7 were explored by cloning the potential target regions in psiCHECK-2™ (Promega, USA), a luciferase reporter vector. In psiCHECK-2™, hRluc, the Renilla luciferase gene, is located upstream of the target regions of interest cloned into the psiCHECK-2™ vector downstream of the Renilla gene. The region corresponding to the 3′-UTR of PCSK7 (926-nt sequences in length) that constituted the predicted miRNA response elements was PCR-amplified and cloned downstream of the Renilla luciferase gene in the psiCHECK-2™ vector (Promega, USA). […]
The HEK293T cells were co-transfected through the application of the wild-type psiCHECK-2, the wild-type PCSK7 3′-UTR, the mutant PCSK7 3′-UTR, and the miR-overexpressing vectors so that the direct interactions of the nominated miRNAs with PCSK7 3′-UTR could be investigated. […] Transfection efficiency was monitored by fluorescent microscopy (Nikon TE2000S, Japan) 36 hours following the procedure.
The PsiCHECK-2 reporter construct plasmid contained the Renilla luciferase gene upstream of PCSK7 3′-UTR and an independent firefly luciferase gene as an internal control for normalization. […] Then, LARII Reagent was added, and after 20 minutes, the firefly luciferase activity was measured as a control. Afterward, Renilla activity was determined using Stop & Glo Reagent. […]

What does the source list for “miR-125a-5p: miRNA targeting PCSK7 3′-UTR and exons 14 and 15, overexpressed from pEGFP-C1 precursor vector (UCCCUGAGACCCUUUAACCUGUGA; miRNA expressed from a pEGFP-C1 precursor vector, further chemistry not given here)”?
reduction in PCSK7 mRNA levels (PCSK7 mRNA): ~25%; reduction of relative luciferase activity [1]: ~50%

Source: US20250129370A1, “METHOD FOR REDUCING HEPATIC TRIGLYCERIDES” (ADAERATA, LIMITED PARTNERSHIP, priority 2022, published 2025)
